According to ChEMBL document CHEMBL1155237, “Selective inhibitors of the mutant B-Raf pathway: discovery of a potent and orally bioavailable aminoisoquinoline” (J Med Chem, 2009):

What was measured:
[1] = target: Tyrosine-protein kinase Lck (Homo sapiens, UniProt P06239); experiment: Inhibition of LCK
[2] = target: Angiopoietin-1 receptor (Homo sapiens, UniProt Q02763); experiment: Inhibition of Tie2
[3] = target: Dual specificity mitogen-activated protein kinase kinase 1 (Homo sapiens) (UniProt Q02750); experiment: Inhibition of MEK1 assessed as enzyme activity at 1 uM relative to untreated control; set-up: scale not given: the % may be the effect or the level left
[4] = target: Mitogen-activated protein kinase kinase kinase 11 (Homo sapiens) (UniProt Q16584); experiment: Inhibition of MLK3 assessed as enzyme activity at 1 uM relative to untreated control; set-up: scale not given: the % may be the effect or the level left
[5] = target: Serine/threonine-protein kinase 24 (Homo sapiens) (UniProt Q9Y6E0); experiment: Inhibition of MST3 assessed as enzyme activity at 1 uM relative to untreated control; set-up: scale not given: the % may be the effect or the level left
[6] = target: Myosin light chain kinase 2, skeletal/cardiac muscle (Homo sapiens) (UniProt Q9H1R3); experiment: Inhibition of MYLK2 assessed as enzyme activity at 1 uM relative to untreated control; set-up: scale not given: the % may be the effect or the level left
Chain of Myosin light chain kinase 2, skeletal/cardiac muscle (Homo sapiens) (Q9H1R3 whole entry): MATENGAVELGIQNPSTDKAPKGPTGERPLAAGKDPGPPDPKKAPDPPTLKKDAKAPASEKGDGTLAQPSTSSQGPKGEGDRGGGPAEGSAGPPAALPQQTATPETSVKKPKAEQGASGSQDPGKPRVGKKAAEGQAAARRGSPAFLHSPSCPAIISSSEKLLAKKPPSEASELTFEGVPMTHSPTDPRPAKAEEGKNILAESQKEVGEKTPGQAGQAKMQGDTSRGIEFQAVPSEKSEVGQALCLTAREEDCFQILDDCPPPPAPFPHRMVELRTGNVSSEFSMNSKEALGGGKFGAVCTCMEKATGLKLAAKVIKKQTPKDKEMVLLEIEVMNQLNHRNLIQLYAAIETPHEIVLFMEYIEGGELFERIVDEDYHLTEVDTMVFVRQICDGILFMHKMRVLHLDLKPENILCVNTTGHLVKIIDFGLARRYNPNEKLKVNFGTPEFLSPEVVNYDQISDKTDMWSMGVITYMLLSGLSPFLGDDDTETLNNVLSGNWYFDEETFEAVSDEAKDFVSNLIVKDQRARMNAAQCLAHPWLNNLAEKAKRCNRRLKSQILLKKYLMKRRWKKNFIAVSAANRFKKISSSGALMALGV

[7] = target: Serine/threonine-protein kinase 38-like (Homo sapiens) (UniProt Q9Y2H1); experiment: Inhibition of NDR2 assessed as enzyme activity at 1 uM relative to untreated control; set-up: scale not given: the % may be the effect or the level left
Chain of Serine/threonine-protein kinase 38-like (Homo sapiens) (Q9Y2H1 2-464 limits assumed): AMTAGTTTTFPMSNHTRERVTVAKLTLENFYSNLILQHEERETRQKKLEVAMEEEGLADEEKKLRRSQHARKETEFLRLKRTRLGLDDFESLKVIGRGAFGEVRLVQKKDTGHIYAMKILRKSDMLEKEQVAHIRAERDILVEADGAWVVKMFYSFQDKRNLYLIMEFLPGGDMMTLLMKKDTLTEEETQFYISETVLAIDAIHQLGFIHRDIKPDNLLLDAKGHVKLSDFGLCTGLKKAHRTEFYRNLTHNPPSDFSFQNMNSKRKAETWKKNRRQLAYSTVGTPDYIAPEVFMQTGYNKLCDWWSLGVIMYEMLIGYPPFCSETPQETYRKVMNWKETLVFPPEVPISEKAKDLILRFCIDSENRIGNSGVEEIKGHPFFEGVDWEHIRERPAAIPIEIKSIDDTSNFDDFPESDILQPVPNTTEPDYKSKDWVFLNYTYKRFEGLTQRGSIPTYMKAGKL

[8] = target: Mitogen-activated protein kinase 11 (Homo sapiens) (UniProt Q15759); experiment: Inhibition of p38beta assessed as enzyme activity at 1 uM relative to untreated control; set-up: scale not given: the % may be the effect or the level left
[9] = target: Serine/threonine-protein kinase PAK 2 (Homo sapiens) (UniProt Q13177); experiment: Inhibition of PAK2 assessed as enzyme activity at 1 uM relative to untreated control; set-up: scale not given: the % may be the effect or the level left
Chain of Serine/threonine-protein kinase PAK 2 (Homo sapiens) (Q13177 whole entry): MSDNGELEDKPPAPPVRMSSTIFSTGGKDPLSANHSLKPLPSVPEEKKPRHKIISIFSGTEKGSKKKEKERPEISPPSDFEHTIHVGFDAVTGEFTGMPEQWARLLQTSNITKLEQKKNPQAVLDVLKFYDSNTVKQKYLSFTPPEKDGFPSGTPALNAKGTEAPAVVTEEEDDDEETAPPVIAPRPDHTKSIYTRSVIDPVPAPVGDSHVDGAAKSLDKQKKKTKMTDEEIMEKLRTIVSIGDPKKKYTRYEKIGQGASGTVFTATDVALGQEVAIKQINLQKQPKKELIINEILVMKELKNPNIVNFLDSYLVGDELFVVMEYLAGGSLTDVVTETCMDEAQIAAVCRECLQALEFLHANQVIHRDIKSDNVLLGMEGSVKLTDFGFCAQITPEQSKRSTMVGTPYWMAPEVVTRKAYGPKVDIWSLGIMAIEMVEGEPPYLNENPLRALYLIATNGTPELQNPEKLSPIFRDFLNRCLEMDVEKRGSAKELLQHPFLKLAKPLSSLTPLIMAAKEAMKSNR

[10] = target: Mast/stem cell growth factor receptor Kit (Homo sapiens) (UniProt P10721); experiment: Inhibition of KIT assessed as enzyme activity at 1 uM relative to untreated control; set-up: scale not given: the % may be the effect or the level left
Chain of Mast/stem cell growth factor receptor Kit (Homo sapiens) (P10721 whole entry): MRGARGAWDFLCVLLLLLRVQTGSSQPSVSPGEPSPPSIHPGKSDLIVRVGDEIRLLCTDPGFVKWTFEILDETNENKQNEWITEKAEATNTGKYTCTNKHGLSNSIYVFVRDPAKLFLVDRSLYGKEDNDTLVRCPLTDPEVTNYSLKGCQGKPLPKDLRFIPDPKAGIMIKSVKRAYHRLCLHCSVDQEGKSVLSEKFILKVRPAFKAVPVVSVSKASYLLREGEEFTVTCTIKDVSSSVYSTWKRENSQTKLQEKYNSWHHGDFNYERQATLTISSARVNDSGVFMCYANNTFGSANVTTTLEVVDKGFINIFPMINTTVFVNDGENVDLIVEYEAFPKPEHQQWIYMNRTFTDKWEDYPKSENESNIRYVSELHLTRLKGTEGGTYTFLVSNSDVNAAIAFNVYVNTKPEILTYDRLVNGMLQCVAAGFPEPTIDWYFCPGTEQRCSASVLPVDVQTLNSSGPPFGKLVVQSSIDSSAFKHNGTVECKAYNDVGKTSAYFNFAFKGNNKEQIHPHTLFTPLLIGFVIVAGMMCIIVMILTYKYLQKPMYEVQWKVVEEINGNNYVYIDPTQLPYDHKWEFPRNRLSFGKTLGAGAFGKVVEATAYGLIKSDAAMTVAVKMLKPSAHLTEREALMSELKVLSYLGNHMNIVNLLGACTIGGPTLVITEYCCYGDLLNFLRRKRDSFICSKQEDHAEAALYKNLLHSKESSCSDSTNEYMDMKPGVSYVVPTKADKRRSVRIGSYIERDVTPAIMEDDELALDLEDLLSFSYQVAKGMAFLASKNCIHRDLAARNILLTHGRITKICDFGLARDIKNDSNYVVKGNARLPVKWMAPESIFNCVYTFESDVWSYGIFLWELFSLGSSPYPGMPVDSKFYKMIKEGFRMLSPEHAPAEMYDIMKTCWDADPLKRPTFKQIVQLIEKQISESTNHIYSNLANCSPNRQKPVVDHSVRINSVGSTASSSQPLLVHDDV

[11] = system: Mast/stem cell growth factor receptor Kit (Homo sapiens), P10721 [V559D,T670I]; experiment: Inhibition of KIT V559D,T670I mutant assessed as enzyme activity at 1 uM relative to untreated control; set-up: scale not given: the % may be the effect or the level left
Chain of Mast/stem cell growth factor receptor Kit (Homo sapiens), P10721 [V559D,T670I] (P10721 whole entry V559D/T670I): as the sequence (P10721 whole entry) above, with V559D, T670I counted along it

[12] = target: Tyrosine-protein kinase receptor UFO (Homo sapiens) (UniProt P30530); experiment: Inhibition of AXL assessed as enzyme activity at 1 uM relative to untreated control; set-up: scale not given: the % may be the effect or the level left
[13] = target: Calcium/calmodulin-dependent protein kinase type II subunit delta (Homo sapiens) (UniProt Q13557); experiment: Inhibition of CAMK2D assessed as enzyme activity at 1 uM relative to untreated control; set-up: scale not given: the % may be the effect or the level left
[14] = target: Calcium/calmodulin-dependent protein kinase kinase 1 (Homo sapiens) (UniProt Q8N5S9); experiment: Inhibition of CAMKK1 assessed as enzyme activity at 1 uM relative to untreated control; set-up: scale not given: the % may be the effect or the level left
[15] = target: Cyclin-dependent kinase 7 (Homo sapiens) (UniProt P50613); experiment: Inhibition of CDK7 assessed as enzyme activity at 1 uM relative to untreated control; set-up: scale not given: the % may be the effect or the level left
[16] = target: Cyclin-dependent kinase-like 2 (Homo sapiens) (UniProt Q92772); experiment: Inhibition of CDKL2 assessed as enzyme activity at 1 uM relative to untreated control; set-up: scale not given: the % may be the effect or the level left
Chain of Cyclin-dependent kinase-like 2 (Homo sapiens) (Q92772 whole entry): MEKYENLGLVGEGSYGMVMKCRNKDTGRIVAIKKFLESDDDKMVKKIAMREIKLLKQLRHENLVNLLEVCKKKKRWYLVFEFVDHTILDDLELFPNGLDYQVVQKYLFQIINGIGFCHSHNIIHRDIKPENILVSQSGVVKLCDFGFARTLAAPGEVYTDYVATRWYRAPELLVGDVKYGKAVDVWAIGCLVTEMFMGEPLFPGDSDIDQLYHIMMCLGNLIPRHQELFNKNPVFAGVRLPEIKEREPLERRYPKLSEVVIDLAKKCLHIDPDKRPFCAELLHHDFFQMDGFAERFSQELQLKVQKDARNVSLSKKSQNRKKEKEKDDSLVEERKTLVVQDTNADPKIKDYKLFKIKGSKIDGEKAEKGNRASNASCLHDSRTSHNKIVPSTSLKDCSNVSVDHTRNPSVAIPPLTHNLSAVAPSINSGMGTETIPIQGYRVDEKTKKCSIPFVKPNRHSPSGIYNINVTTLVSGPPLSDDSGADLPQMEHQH

[17] = target: Macrophage colony-stimulating factor 1 receptor (Homo sapiens) (UniProt P07333); experiment: Inhibition of CSF1R assessed as enzyme activity at 1 uM relative to untreated control; set-up: scale not given: the % may be the effect or the level left
[18] = target: Serine/threonine-protein kinase D3 (Homo sapiens) (UniProt O94806); experiment: Inhibition of PRKD3 assessed as enzyme activity at 1 uM relative to untreated control; set-up: scale not given: the % may be the effect or the level left
[19] = target: cGMP-dependent protein kinase 2 (Homo sapiens) (UniProt Q13237); experiment: Inhibition of PRKG2 assessed as enzyme activity at 1 uM relative to untreated control; set-up: scale not given: the % may be the effect or the level left
[20] = target: Interferon-induced, double-stranded RNA-activated protein kinase (Homo sapiens) (UniProt P19525); experiment: Inhibition of PRKR assessed as enzyme activity at 1 uM relative to untreated control; set-up: scale not given: the % may be the effect or the level left
Chain of Interferon-induced, double-stranded RNA-activated protein kinase (Homo sapiens) (P19525 whole entry): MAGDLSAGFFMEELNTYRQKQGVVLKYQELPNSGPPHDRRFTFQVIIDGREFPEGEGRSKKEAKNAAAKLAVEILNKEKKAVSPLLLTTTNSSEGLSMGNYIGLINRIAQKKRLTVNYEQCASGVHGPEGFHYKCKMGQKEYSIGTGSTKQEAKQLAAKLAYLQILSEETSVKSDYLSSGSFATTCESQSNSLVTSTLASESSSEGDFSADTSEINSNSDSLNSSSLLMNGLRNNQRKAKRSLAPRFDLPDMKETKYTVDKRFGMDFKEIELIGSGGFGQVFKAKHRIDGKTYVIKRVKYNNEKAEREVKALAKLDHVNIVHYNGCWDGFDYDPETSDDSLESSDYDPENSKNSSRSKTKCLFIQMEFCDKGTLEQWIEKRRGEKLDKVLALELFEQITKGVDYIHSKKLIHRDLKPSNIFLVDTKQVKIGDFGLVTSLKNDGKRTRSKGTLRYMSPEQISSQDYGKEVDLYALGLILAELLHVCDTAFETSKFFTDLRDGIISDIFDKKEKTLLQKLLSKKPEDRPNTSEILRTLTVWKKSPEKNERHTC

[21] = target: Serine/threonine-protein kinase RIO1 (Homo sapiens) (UniProt Q9BRS2); experiment: Inhibition of RIOK1 assessed as enzyme activity at 1 uM relative to untreated control; set-up: scale not given: the % may be the effect or the level left
[22] = target: Ribosomal protein S6 kinase alpha-1 (Homo sapiens) (UniProt Q15418); experiment: Inhibition of RPS6KA1 kinase domain 1 assessed as enzyme activity at 1 uM relative to untreated control; set-up: scale not given: the % may be the effect or the level left
[23] = target: Ribosomal protein S6 kinase alpha-6 (Homo sapiens) (UniProt Q9UK32); experiment: Inhibition of RPS6KA6 kinase domain 2 assessed as enzyme activity at 1 uM relative to untreated control; set-up: scale not given: the % may be the effect or the level left
[24] = target: Vascular endothelial growth factor receptor 3 (Homo sapiens) (UniProt P35916); experiment: Inhibition of FLT4 assessed as enzyme activity at 1 uM relative to untreated control; set-up: scale not given: the % may be the effect or the level left
[25] = target: Tyrosine-protein kinase JAK1 (Homo sapiens) (UniProt P23458); experiment: Inhibition of JAK1 kinase domain 2 assessed as enzyme activity at 1 uM relative to untreated control; set-up: scale not given: the % may be the effect or the level left
[26] = target: Casein kinase II subunit alpha' (Homo sapiens) (UniProt P19784); experiment: Inhibition of CSNK2A2 assessed as enzyme activity at 1 uM relative to untreated control; set-up: scale not given: the % may be the effect or the level left
[27] = system: Tyrosine-protein kinase ABL1 (Homo sapiens), P00519 [M351T]; experiment: Inhibition of ABL1 M351T mutant assessed as enzyme activity at 1 uM relative to untreated control; set-up: scale not given: the % may be the effect or the level left
[28] = target: Serine/threonine-protein kinase PAK 5 (Homo sapiens) (UniProt Q9P286); experiment: Inhibition of PAK7/PAK5 assessed as enzyme activity at 1 uM relative to untreated control; set-up: scale not given: the % may be the effect or the level left
[29] = target: Serine/threonine-protein kinase pim-2 (Homo sapiens) (UniProt Q9P1W9); experiment: Inhibition of PIM2 assessed as enzyme activity at 1 uM relative to untreated control; set-up: scale not given: the % may be the effect or the level left
[30] = target: Serine/threonine-protein kinase PLK1 (Homo sapiens) (UniProt P53350); experiment: Inhibition of PLK1 assessed as enzyme activity at 1 uM relative to untreated control; set-up: scale not given: the % may be the effect or the level left
[31] = target: Serine/threonine-protein kinase PLK4 (Homo sapiens) (UniProt O00444); experiment: Inhibition of PLK4 assessed as enzyme activity at 1 uM relative to untreated control; set-up: scale not given: the % may be the effect or the level left
[32] = target: Protein kinase C eta type (Homo sapiens) (UniProt P24723); experiment: Inhibition of PRKCH assessed as enzyme activity at 1 uM relative to untreated control; set-up: scale not given: the % may be the effect or the level left
[33] = target: Aurora kinase A (Homo sapiens) (UniProt O14965); experiment: Inhibition of AURKA assessed as enzyme activity at 1 uM relative to untreated control; set-up: scale not given: the % may be the effect or the level left
[34] = target: Serine/threonine-protein kinase tousled-like 1 (Homo sapiens) (UniProt Q9UKI8); experiment: Inhibition of TLK1 assessed as enzyme activity at 1 uM relative to untreated control; set-up: scale not given: the % may be the effect or the level left
[35] = target: High affinity nerve growth factor receptor (Homo sapiens) (UniProt P04629); experiment: Inhibition of TRKA assessed as enzyme activity at 1 uM relative to untreated control; set-up: scale not given: the % may be the effect or the level left
[36] = target: Non-receptor tyrosine-protein kinase TYK2 (Homo sapiens) (UniProt P29597); experiment: Inhibition of TYK2 kinase domain 1 assessed as enzyme activity at 1 uM relative to untreated control; set-up: scale not given: the % may be the effect or the level left
[37] = target: Wee1-like protein kinase (Homo sapiens) (UniProt P30291); experiment: Inhibition of WEE1 assessed as enzyme activity at 1 uM relative to untreated control; set-up: scale not given: the % may be the effect or the level left
Chain of Wee1-like protein kinase (Homo sapiens) (P30291 whole entry, looked up): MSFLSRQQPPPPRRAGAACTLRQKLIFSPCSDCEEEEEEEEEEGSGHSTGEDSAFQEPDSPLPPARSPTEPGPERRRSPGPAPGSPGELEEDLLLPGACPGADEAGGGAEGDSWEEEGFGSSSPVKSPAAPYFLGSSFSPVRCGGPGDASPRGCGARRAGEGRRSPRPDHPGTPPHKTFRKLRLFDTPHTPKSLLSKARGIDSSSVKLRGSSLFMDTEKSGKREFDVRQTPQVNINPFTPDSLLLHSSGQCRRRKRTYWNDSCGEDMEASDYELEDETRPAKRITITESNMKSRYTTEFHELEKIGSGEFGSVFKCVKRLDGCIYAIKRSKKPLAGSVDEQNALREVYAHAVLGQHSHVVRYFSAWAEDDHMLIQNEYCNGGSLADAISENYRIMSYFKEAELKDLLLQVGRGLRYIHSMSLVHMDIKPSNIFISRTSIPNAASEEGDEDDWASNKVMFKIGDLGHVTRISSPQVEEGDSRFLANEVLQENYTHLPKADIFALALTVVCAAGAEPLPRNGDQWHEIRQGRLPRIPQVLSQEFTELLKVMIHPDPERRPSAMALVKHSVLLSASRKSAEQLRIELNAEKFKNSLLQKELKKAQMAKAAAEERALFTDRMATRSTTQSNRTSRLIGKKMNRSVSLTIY

[38] = target: Serine/threonine-protein kinase 32B (Homo sapiens) (UniProt Q9NY57); experiment: Inhibition of YANK2 assessed as enzyme activity at 1 uM relative to untreated control; set-up: scale not given: the % may be the effect or the level left

Chain of Tyrosine-protein kinase Lck (P06239 whole entry): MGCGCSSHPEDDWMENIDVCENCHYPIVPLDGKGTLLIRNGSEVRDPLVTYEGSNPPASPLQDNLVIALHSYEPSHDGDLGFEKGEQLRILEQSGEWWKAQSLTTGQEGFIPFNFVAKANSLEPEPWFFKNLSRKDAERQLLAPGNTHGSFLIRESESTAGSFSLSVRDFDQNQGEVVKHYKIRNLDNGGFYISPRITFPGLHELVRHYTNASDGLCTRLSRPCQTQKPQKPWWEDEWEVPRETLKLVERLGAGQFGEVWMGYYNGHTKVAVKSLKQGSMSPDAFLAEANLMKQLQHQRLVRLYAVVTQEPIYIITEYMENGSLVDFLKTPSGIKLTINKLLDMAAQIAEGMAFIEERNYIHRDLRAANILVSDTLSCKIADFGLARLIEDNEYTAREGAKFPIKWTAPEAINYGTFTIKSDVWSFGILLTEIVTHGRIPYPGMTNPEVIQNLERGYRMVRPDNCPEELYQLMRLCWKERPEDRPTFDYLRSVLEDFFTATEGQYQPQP

Compound: Cc1ccc2c(Nc3ccc(Cl)cc3)nccc2c1Nc1ncccc1-c1ncnc2[nH]cnc12.Cl.Cl.Cl
- IC50 [1]: 0.083 µM
- IC50 [2]: 0.12 µM
- Activity [3]: 100%
- Activity [4]: 100%
- Activity [5]: 87%
- Activity [6]: 100%
- Activity [7]: 100%
- Activity [8]: 99%
- Activity [9]: 85%
- Activity [10]: 28%
- Activity [11]: 77%
- Activity [12]: 95%
- Activity [13]: 79%
- Activity [14]: 96%
- Activity [15]: 100%
- Activity [16]: 100%
- Activity [17]: 0.25%
- Activity [18]: 100%
- Activity [19]: 100%
- Activity [20]: 97%
- Activity [21]: 92%
- Activity [22]: 94%
- Activity [23]: 86%
- Activity [24]: 96%
- Activity [25]: 47%
- Activity [26]: 100%
- Activity [27]: 45%
- Activity [28]: 90%
- Activity [29]: 100%
- Activity [30]: 100%
- Activity [31]: 90%
- Activity [32]: 100%
- Activity [33]: 100%
- Activity [34]: 83%
- Activity [35]: 15%
- Activity [36]: 96%
- Activity [37]: 92%
- Activity [38]: 95%
